Source: PMC7200681, “The calcitonin-like system is an ancient regulatory system of biomineralization” (Scientific Reports, 2020)
Bridge positions count the residues as written; N and C are the ends.

Tested on: mussel mantle edge
Test: Ex-vivo incubation of mantle edge fragments, calcium quantification by MP-AES
Design: species or system Mytilus galloprovincialis
Details: 4 h at 19-20 °C; CALCIIa 10 μM or ouabain 2 mM alone; MP-AES at 393.366 nm; mean ± SEM; control 400.67 ±13.83 ppm; SEM
Description: Figure 7 Effect of the mussel calcitonin-like peptide on (A) calcium (ppm) concentration in the mantle edge and (B) calcium uptake by mantle cells of the Mediterranean mussel. (A) The quantity of calcium (ppm) present in the mantle edge after mussel CALCIIa peptide incubation was measured using a Microwave Plasma-Atomic Emission Spectrometer (MP-AES, Agilent) at 393.366 nm. A standard curve for calcium was performed before analysing the samples. In vitro mantle assays with CALCIIa peptide and with ouabain and control (culture medium and mantle) were repeated on at least 3 independent occasions. For each assay at least ten replicates were performed and the mantle edge distal to the umbo was used (one mantle fragment per replica). Prism GraphPad v5 software was used to assess the significance of differences between the groups using a One-way Anova and Tukey’s multiple comparison test. […] C - control (no peptide or ouabain); P - peptide (10 μM); O - ouabain (2 mM), OP - ouabain (2 mM) and peptide (10 μM); PreOP - pre -stimulation for 1 hour with the peptide followed by 4 hours incubation with OP. (B) Digital photographs of the mussel mantle cells in the presence (CALCIIa, 10 μM) or absence (control) of the mussel CALCIIa peptide. Calcium ions were stained with 50 mM of Calcein (green) and cell nuclei (blue) with DAPI (Acros Organics). An increase in cellular fluorescence represents an increase in calcium uptake. Fluorescence of the CALCIIa peptide stimulated cells was 1.9 times higher than the control. The average mantle cell size was 3–4 μm and fluorescent images were taken using a Leica DM IL microscope coupled to a Visicam HDMI 6 digital camera and photographs were analysed using ImageJ software (v. 1.52a) to calculate the fluorescence intensity and for image overlay. The scale bar is indicated.
The posterior mantle edge region of the Mediterranean mussel was collected and washed in culture medium. The composition of the culture medium was as described in[91] […]

Substance: H-CTWGGGMSDEMCSTVDIDEIQRSFQVIHDRNSP-NH2 (disulfide 1-12 (inferred)) [CALCIIa, Mediterranean mussel calcitonin-like mature peptide, 33 aa, synthesized with disulphide bond and C-terminal amidation]
- Calcium in the mantle edge after incubation: 513.38 ± 24.33 ppm
